Experimental data: PubChem BioAssay (NCI)
“And” between values parts separate entries of the source, which are not always exact repeats. Identical values can stand only once.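 Growth conditions: 96-well plates. Treatment: test compound, 48 hours, 5 concentrations. Analysis: linear interpolation between bracketing concentrations; unreached endpoints set to highest concentration. GI50 is the concentration that inhibits growth by half. TGI: concentration producing complete growth inhibition.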

Assays:
Experiment in all cases: inhibition of tumour cell growth, NCI panel, 48 h
[1] = system: M14 melanoma
[2] = system: NCI-H23 lung
[3] = system: A549 NSCLC
[4] = system: SF-268 CNS
[5] = system: OVCAR-8 ovarian
[6] = system: COLO 205 colon
[7] = system: SK-MEL-2 melanoma
[8] = system: RPMI-8226 leukemia
[9] = system: OVCAR-4 ovarian
[10] = system: MALME-3M melanoma
[11] = system: T-47D breast
[12] = system: SK-OV-3 ovarian
[13] = system: SNB-75 CNS
[14] = system: HT29 colon
[15] = system: TK-10 renal
[16] = system: OVCAR-5 ovarian
[17] = system: MDA-N
[18] = system: OVCAR-3 ovarian
[19] = system: SK-MEL-28 melanoma
[20] = system: SNB-19 CNS
[21] = system: HCC-2998 colon
[22] = system: SF-539 CNS
[23] = system: HS 578T breast
[24] = system: NCI-H460 lung
[25] = system: NCI-H226 lung
[26] = system: CAKI-1 renal
[27] = system: ACHN renal
[28] = system: MCF7 breast
[29] = system: IGROV1 ovarian
[30] = system: K-562 leukemia
[31] = system: KM12 colon
[32] = system: PC-3 prostate
[33] = system: RXF 393 renal
[34] = system: MDA-MB-231 breast
[35] = system: NCI/ADR-RES ovarian
[36] = system: SR leukemia
[37] = system: UACC-62 melanoma
[38] = system: MDA-MB-435
[39] = system: HCT-15 colon
[40] = system: NCI-H522 lung
[41] = system: UACC-257 melanoma
[42] = system: MOLT-4 leukemia
[43] = system: BT-549 breast
[44] = system: SN12C renal
[45] = system: 786-0 renal
[46] = system: CCRF-CEM leukemia
[47] = system: HOP-92 NSCLC
[48] = system: HOP-62 NSCLC
[49] = system: UO-31 renal
[50] = system: U251 CNS
[51] = system: A498 renal
[52] = system: LOX IMVI melanoma
[53] = system: HCT-116 colon
[54] = system: SW-620 colon
[55] = system: SK-MEL-5 melanoma
[56] = system: EKVX NSCLC
[57] = system: HL-60(TB) leukemia
[58] = system: SF-295 CNS
[59] = system: DU-145 prostate

CC1=C2O[C@]3(O)C=C2C(=C(O)C1=O)[C@@H]1O[C@H](CC[C@H](C)/C=C(\C)C[C@@H](C)C[C@@H]3C)[C@H](C)[C@H](O)[C@H]1C
GI50 [1]: 220 nM
TGI [1]: 363 nM and 526 nM
GI50 [2]: 563 nM
TGI [2]: 1170 nM and 1880 nM
GI50 [3]: 1610 nM
TGI [3]: 2.08 µM and 3.39 µM
GI50 [4]: 303 nM
TGI [4]: 1140 nM and 892 nM
GI50 [5]: 169 nM and 234 nM
TGI [5]: 472 nM and 597 nM
GI50 [6]: 165 nM
TGI [6]: 256 nM and 313 nM
GI50 [7]: 282 nM
TGI [7]: 851 nM and 703 nM
TGI [8]: 378 nM and 582 nM
GI50 [9]: 229 nM
TGI [9]: 560 nM and 637 nM
TGI [10]: 480 nM and 334 nM
GI50 [11]: 105 nM and 184 nM
TGI [11]: 230 nM and 361 nM
GI50 [12]: 1720 nM
TGI [12]: 2.13 µM and 3.11 µM
GI50 [13]: 603 nM
TGI [13]: 897 nM and 1350 nM
GI50 [14]: 216 nM
TGI [14]: 529 nM and 504 nM
GI50 [15]: 336 nM
TGI [15]: 372 nM and 1160 nM
GI50 [16]: 767 nM
TGI [16]: 3.19 µM and 2.08 µM
GI50 [17]: 204 nM
TGI [17]: 398 nM and 446 nM
GI50 [18]: 187 nM
TGI [18]: 355 nM and 394 nM
TGI [19]: 662 nM and 588 nM
GI50 [20]: 1580 nM
TGI [20]: 1.98 µM and 3.11 µM
GI50 [21]: 330 nM
TGI [21]: 384 nM and 1160 nM
GI50 [22]: 240 nM
TGI [22]: 384 nM and 580 nM
TGI [23]: 1490 nM
GI50 [24]: 1420 nM
TGI [24]: 1.82 µM
GI50 [25]: 935 nM
TGI [25]: 2120 nM and 2390 nM
GI50 [26]: 295 nM
TGI [26]: 1660 nM and 780 nM
GI50 [27]: 182 nM
TGI [27]: 239 nM and 323 nM
TGI [28]: 556 nM and 395 nM
GI50 [29]: 272 nM
TGI [29]: 324 nM and 664 nM
TGI [30]: 4.87 µM
GI50 [31]: 376 nM
TGI [31]: 1750 nM and 1270 nM
TGI [32]: 1050 nM and 637 nM
TGI [33]: 0.434 µM
GI50 [34]: 285 nM
TGI [34]: 352 nM and 830 nM
GI50 [35]: 559 nM
TGI [35]: 1350 nM and 2680 nM
TGI [36]: 4.18 µM
GI50 [37]: 356 nM
TGI [37]: 695 nM and 1160 nM
GI50 [38]: 199 nM
TGI [38]: 325 nM and 429 nM
GI50 [39]: 180 nM
TGI [39]: 289 nM and 406 nM
TGI [40]: 0.321 µM
GI50 [41]: 412 nM
TGI [41]: 860 nM and 2340 nM
GI50 [42]: 174 nM
TGI [42]: 2340 nM and 688 nM
GI50 [43]: 878 nM
TGI [43]: 863 nM and 2150 nM
GI50 [44]: 495 nM
TGI [44]: 2150 nM and 1940 nM
GI50 [45]: 180 nM
TGI [45]: 324 nM and 342 nM
GI50 [46]: 33.9 nM
TGI [46]: 296 nM
GI50 [47]: 177 nM
TGI [47]: 273 nM and 377 nM
GI50 [48]: 1390 nM
TGI [48]: 0.709 µM and 3.15 µM
GI50 [49]: 232 nM
TGI [49]: 548 nM and 654 nM
GI50 [50]: 288 nM
TGI [50]: 1160 nM and 752 nM
GI50 [51]: 177 nM
TGI [51]: 694 nM and 2930 nM
GI50 [52]: 274 nM
TGI [52]: 793 nM and 739 nM
GI50 [53]: 201 nM
TGI [53]: 486 nM and 436 nM
TGI [54]: 3.47 µM
GI50 [55]: 777 nM
TGI [55]: 1660 nM and 1710 nM
TGI [56]: 939 nM and 910 nM
GI50 [57]: 203 nM
TGI [57]: 617 nM
GI50 [58]: 1640 nM
TGI [58]: 2.3 µM and 3.11 µM
TGI [59]: 1030 nM and 659 nM

CC(=O)O[C@H]1C(=O)[C@@]2(C)[C@H]([C@H](OC(=O)c3ccccc3)[C@]3(O)C[C@H](OC(=O)[C@H](O)[C@@H](NC(=O)c4ccccc4)c4ccccc4C)C(C)=C1C3(C)C)[C@]1(OC(C)=O)CO[C@@H]1C[C@@H]2O
TGI [1]: 3020 nM
TGI [2]: > 11600 nM
TGI [3]: > 25 µM
TGI [4]: > 25000 nM
TGI [5]: 12700 nM
TGI [6]: 1790 nM
TGI [7]: 11500 nM
TGI [8]: 1030 nM
TGI [9]: > 23300 nM
TGI [10]: > 24000 nM
TGI [11]: > 25000 nM
TGI [12]: > 12.7 µM
TGI [13]: 10100 nM
TGI [14]: 18400 nM
TGI [15]: 18900 nM
TGI [16]: 4.74 µM
TGI [17]: 392 nM
TGI [18]: 4870 nM
TGI [19]: > 15200 nM
TGI [20]: > 25 µM
TGI [21]: 7110 nM
TGI [22]: 1930 nM
TGI [23]: 1730 nM
TGI [24]: > 11.3 µM
TGI [25]: > 25000 nM
TGI [26]: > 25000 nM
TGI [27]: > 25000 nM
TGI [28]: > 16100 nM
TGI [29]: > 25000 nM
TGI [30]: 5.08 µM
TGI [31]: 5750 nM
TGI [32]: > 9400 nM
TGI [33]: 3.97 µM
TGI [34]: > 16100 nM
TGI [35]: > 25000 nM
TGI [36]: 4.06 µM
TGI [37]: > 15800 nM
TGI [38]: 289 nM
TGI [39]: > 25000 nM
TGI [40]: 4.29 µM
TGI [41]: > 11700 nM
TGI [42]: 5350 nM
TGI [43]: > 11800 nM
TGI [44]: > 25000 nM
TGI [45]: 12800 nM
TGI [46]: 2700 nM
TGI [47]: 24200 nM
TGI [48]: > 25 µM
TGI [49]: > 24200 nM
TGI [50]: 6000 nM
TGI [51]: 9400 nM
TGI [52]: > 25000 nM
TGI [53]: 9150 nM
TGI [54]: > 25 µM
TGI [55]: 3050 nM
TGI [56]: > 25000 nM
TGI [57]: 228 nM
TGI [58]: > 9.21 µM
TGI [59]: > 20600 nM

CCC(=O)c1cc(C(=O)C(=S)SC)cc(C(=O)C(=S)SC)c1
TGI [1]: > 100000 nM
TGI [2]: > 100000 nM
TGI [3]: > 100 µM
TGI [4]: > 100000 nM
TGI [5]: > 100000 nM
TGI [6]: > 100000 nM
TGI [7]: > 100000 nM
TGI [8]: > 100000 nM
TGI [9]: > 100000 nM
TGI [10]: > 100000 nM
TGI [11]: > 100000 nM
TGI [12]: > 100 µM
TGI [13]: > 100000 nM
TGI [14]: > 100000 nM
TGI [15]: > 100000 nM
TGI [16]: > 100 µM
TGI [17]: > 100000 nM
TGI [18]: > 100000 nM
TGI [19]: > 100000 nM
TGI [20]: > 100 µM
TGI [21]: > 100000 nM
TGI [22]: > 100000 nM
TGI [23]: > 100000 nM
TGI [24]: > 100 µM
TGI [25]: > 100000 nM
TGI [26]: > 100000 nM
TGI [27]: > 100000 nM
TGI [28]: > 100000 nM
TGI [29]: > 100000 nM
TGI [30]: > 100 µM
TGI [31]: > 100000 nM
TGI [32]: > 100000 nM
TGI [33]: > 100 µM
TGI [34]: > 100000 nM
TGI [35]: > 100000 nM
TGI [36]: > 100 µM
TGI [37]: > 100000 nM
TGI [38]: > 100000 nM
TGI [39]: > 100000 nM
TGI [40]: > 100 µM
TGI [41]: > 100000 nM
TGI [42]: > 63400 nM
TGI [43]: > 100000 nM
TGI [44]: > 100000 nM
TGI [45]: > 100000 nM
TGI [46]: > 24600 nM
TGI [47]: > 100000 nM
TGI [48]: > 100 µM
TGI [49]: > 100000 nM
TGI [50]: > 100000 nM
TGI [51]: > 100000 nM
TGI [52]: > 100000 nM
TGI [53]: > 100000 nM
TGI [54]: > 100 µM
TGI [55]: > 100000 nM
TGI [56]: > 100000 nM
TGI [57]: > 72600 nM
TGI [58]: > 100 µM
TGI [59]: > 100000 nM
